Consider 22 compounds from patent US20230303570A1, “KINASE INHIBITORS AND USES THEREOF” (ABM Therapeutics Corporation, priority 2020, published 2023).

For the assay, the target named is HPK1 (MAP4K1) (Homo sapiens, UniProt Q92918). Description: HPK1 (MAP4K1) kinase Lantha screen assay. It counts as biochemical. As for the experimental part: The effect of the compounds on the activity of HPK1 (MAP4K1) kinase were assessed by Lantha screen assay. • 1. 1×kinase buffer was prepared (50 mM HEPES, pH 7.5, 10 mM MgCl2, 4 mM DT • 2. Compound and assay plates preparation: • 2-1) The compound was diluted to 100× of the final desired highest inhibitor concentration in reaction by 100% DMSO. For example, if a compound was tested at […], then a solution at 500 µM in DMSO was prepared in this step. • 2-2) For each tested compound, the compound was transferred in tubes to one well on a 96-well storage plate and serially diluted by transferring […] of 100% DMSO in the next well and so forth for a total of 6 concentrations. • 2-3) 100 μl of 100% DMSO were added to two empty wells to serve as no compound control and no enzyme control in the same 96-well plate. The resulting plate was labeled as the source plate. • 2-4) 40 μl of compound from source plate were transferred to a new 384-well Echo plate as the intermediate plate. 100 nl of each well from the 384-well Echo plate were transferred to a 384-well assay plate in duplicates. For example, A1 of the 384-well Echo plate was transferred to A1 and A2 of the 384-well plate. A2 of the 384-well Echo plate was transferred to A3 and A4 of the 384-well plate, and so on; • 3. Kinase reaction: a solution of MAP4K1 in 1× kinase buffer at 2-fold the final concentration of each reagent in the assay was prepared. 5 μl of kinase solution was added to each well of the assay plate, except for control wells without enzyme (add 5 μl of 1× kinase buffer instead). The plate was then shaken, then incubated at room temperature for 10 min. A substrate solution of Fluorescein-PKC and ATP in 1× kinase reaction buffer at 2-fold of the final concentration of each reagent desired in the assay was prepared. 5 μl of substrate solution was added to each well of the assay plate to start reaction. The plate was shaken, then covered, and incubated at room temperature for 90 minutes.
Kinase detection: detection solution of 2-fold of final concentration in Antibody Dilution Buffer was prepared. 10 μl of detection solution was added to each well of the assay plate to stop the reaction. The mixtures were mixed briefly with Centrifuge and incubated at room temperature 60 minutes before reading on a plate reader for fluorescence. Data was collected on Envision with excitation at 340 nm and emission at 520 nm and 495 nm.

Chain of HPK1 (MAP4K1) (Q92918 whole entry, species assumed): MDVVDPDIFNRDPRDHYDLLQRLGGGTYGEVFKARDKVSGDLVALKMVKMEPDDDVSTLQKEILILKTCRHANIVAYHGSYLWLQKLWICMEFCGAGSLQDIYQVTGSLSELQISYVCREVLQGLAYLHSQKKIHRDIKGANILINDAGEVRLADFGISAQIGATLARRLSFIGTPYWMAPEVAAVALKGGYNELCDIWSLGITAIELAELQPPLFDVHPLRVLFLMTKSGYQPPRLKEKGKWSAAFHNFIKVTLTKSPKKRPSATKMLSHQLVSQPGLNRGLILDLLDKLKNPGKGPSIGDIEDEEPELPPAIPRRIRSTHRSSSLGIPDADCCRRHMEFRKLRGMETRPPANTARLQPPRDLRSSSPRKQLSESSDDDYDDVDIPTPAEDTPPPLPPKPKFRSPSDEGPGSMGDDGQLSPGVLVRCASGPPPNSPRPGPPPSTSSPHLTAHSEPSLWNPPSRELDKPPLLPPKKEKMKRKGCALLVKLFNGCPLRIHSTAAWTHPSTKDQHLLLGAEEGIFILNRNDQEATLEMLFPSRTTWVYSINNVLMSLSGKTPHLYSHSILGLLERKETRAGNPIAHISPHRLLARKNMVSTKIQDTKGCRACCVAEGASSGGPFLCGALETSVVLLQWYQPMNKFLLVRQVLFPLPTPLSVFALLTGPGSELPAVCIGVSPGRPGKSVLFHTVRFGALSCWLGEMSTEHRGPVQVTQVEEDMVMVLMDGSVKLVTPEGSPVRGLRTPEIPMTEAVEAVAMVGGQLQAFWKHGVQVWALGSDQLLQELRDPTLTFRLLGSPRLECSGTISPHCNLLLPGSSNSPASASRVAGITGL

The IC50 is the midpoint of a concentration-inhibition curve. The low end stands for greater potency, the high end for weaker potency. `Cc1cc(F)c(NC(=O)c2cc(C(F)(F)F)ccn2)cc1C1=Cc2cnc(Nc3ccn(C)n3)nc2N2CCN=C12` [Compound 269, N-(2-fluoro-4-methyl-5-(2-((1-methyl-1H-pyrazol-3-yl)amino)-8,9-dihydroimidazo[1′,2′:1,6]pyrido[2,3-d]pyrimidin-6-yl)phenyl)-4-(trifluoromethyl)picolinamide] registered a half-maximal inhibitory concentration (IC50) of under 0.1 µM.

`Cc1cc(F)c(NC(=O)c2cccc(C(C)(C)C#N)n2)cc1C1=Cc2cnc(NC3COC3)nc2N2CCN=C12` [Compound 182, 6-(2-cyanopropan-2-yl)-N-(2-fluoro-4-methyl-5-(2-(oxetan-3-ylamino)-8,9-dihydroimidazo[1′,2′:1,6]pyrido[2,3-d]pyrimidin-6-yl)phenyl)picolinamide] yielded an IC50 of 0.1 to 10 µM.

Turning to `CNc1ncc2c(n1)N1CCN=C1C(c1cc(NC(=O)c3nccc(C(F)(F)F)c3Cl)ccc1C)=C2` [Compound 152, 3-chloro-N-(4-methyl-3-(2-(methylamino)-8,9-dihydroimidazo[1′,2′:1,6]pyrido[2,3-d]pyrimidin-6-yl)phenyl)-4-(trifluoromethyl)picolinamide], the IC50 lay within 0.1 to 10 µM.

For `CNc1ncc2c(n1)N1CCN=C1C(c1cc(NC(=O)C3(C(=O)Nc4ccc(F)cc4)CC3)c(F)cc1C)=C2` [Compound 343, N-(2-fluoro-4-methyl-5-(2-(methylamino)-8,9-dihydroimidazo[1′,2′:1,6]pyrido[2,3-d]pyrimidin-6-yl)phenyl)-N-(4-fluorophenyl)cyclopropane-1,1-dicarboxamide], the IC50 was over 10 µM.

As to `Cc1ccc(NC(=O)c2cc(C(F)(F)F)ccn2)cc1C1=Cc2cnc(Nc3ccnn3C)nc2N2CCN=C12` [Compound 235, N-(4-methyl-3-(2-((1-methyl-1H-pyrazol-5-yl)amino)-8,9-dihydroimidazo[1′,2′:1,6]pyrido[2,3-d]pyrimidin-6-yl)phenyl)-4-(trifluoromethyl)picolinamide], the IC50 was in the range of 0.1 to 10 µM.

In turn, `CNc1ncc2c(n1)N1CCN=C1C(c1cc(NC(=O)c3cc(C(F)(F)F)ccn3)c(Cl)cc1C)=C2` [Compound 133, N-(2-chloro-4-methyl-5-(2-(methylamino)-8,9-dihydroimidazo[1′,2′:1,6]pyrido[2,3-d]pyrimidin-6-yl)phenyl)-4-(trifluoromethyl)picolinamide] registered a half-maximal inhibitory concentration (IC50) of under 0.1 µM.

`Cc1ccc(NC(=O)c2cc(C(F)(F)F)ccn2)cc1C1=Cc2cnc(Nc3cccnc3C)nc2N2CCN=C12` [Compound 209, N-(4-methyl-3-(2-((2-methylpyridin-3-yl)amino)-8,9-dihydroimidazo[1′,2′:1,6]pyrido[2,3-d]pyrimidin-6-yl)phenyl)-4-(trifluoromethyl)picolinamide] returned an IC50 of under 0.1 µM.

`Cc1ccc(Nc2ncc3c(n2)N2CCN=C2C(c2cc(NC(=O)c4cccc(C(F)(F)F)c4)ccc2C)=C3)cn1` [Compound 207, N-(4-methyl-3-(2-((6-methylpyridin-3-yl)amino)-8,9-dihydroimidazo[1′,2′:1,6]pyrido[2,3-d]pyrimidin-6-yl)phenyl)-3-(trifluoromethyl)benzamide] returned a concentration for half-maximal inhibition (IC50) of under 0.1 µM.

For the compound `Cc1ccc(NC(=O)c2cc(C(F)(F)F)ccn2)cc1C1=Cc2cnc(NC3COC3)nc2N2CCN=C12` [Compound 114, N-(4-methyl-3-(2-(oxetan-3-ylamino)-8,9-dihydroimidazo[1′,2′:1,6]pyrido[2,3-d]pyrimidin-6-yl)phenyl)-4-(trifluoromethyl)picolinamide], the IC50 is under 0.1 µM.

For `CNc1cc2c(cn1)C=C(c1cc(NC(=O)c3cc(C(F)(F)F)ccn3)ccc1C)C1=NCCN12` [Compound 132, N-(4-methyl-3-(8-(methylamino)-1,2-dihydroimidazo[1,2-a][1,6]naphthyridin-4-yl)phenyl)-4-(trifluoromethyl)picolinamide], the IC50 lay within 0.1 to 10 µM.

For the compound `Cc1cc(F)c(NC(=O)c2cccc(C(C)(C)C#N)c2)cc1C1=Cc2cnc(NC3COC3)nc2N2CCN=C12` [Compound 180, 3-(2-cyanopropan-2-yl)-N-(2-fluoro-4-methyl-5-(2-(oxetan-3-ylamino)-8,9-dihydroimidazo[1′,2′:1,6]pyrido[2,3-d]pyrimidin-6-yl)phenyl)benzamide], the IC50 was under 0.1 µM.

`Cc1cnccc1Nc1ncc2c(n1)N1CCN=C1C(c1cc(NC(=O)c3cc(C(F)(F)F)ccn3)ccc1C)=C2` [Compound 213, N-(4-methyl-3-(2-((3-methylpyridin-4-yl)amino)-8,9-dihydroimidazo[1′,2′:1,6]pyrido[2,3-d]pyrimidin-6-yl)phenyl)-4-(trifluoromethyl)picolinamide] came in with a 50% inhibitory concentration (IC50) of under 0.1 µM.

For `O=C(Nc1ccc(Cl)c(C2=Cc3cnc(NC4CCOCC4)nc3N3CCN=C23)c1)c1cc(C(F)(F)F)ccn1` [Compound 138, N-(4-chloro-3-(2-((tetrahydro-2H-pyran-4-yl)amino)-8,9-dihydroimidazo[1′,2′:1,6]pyrido[2,3-d]pyrimidin-6-yl)phenyl)-4-(trifluoromethyl)picolinamide], the IC50 was under 0.1 µM.

`Cc1ccc(NC(=O)c2cc(C(F)(F)F)ccn2)cc1C1=Cc2cnc(Nc3cccc(F)c3)nc2N2CCN=C12` [Compound 226, N-(3-(2-((3-fluorophenyl)amino)-8,9-dihydroimidazo[1′,2′:1,6]pyrido[2,3-d]pyrimidin-6-yl)-4-methylphenyl)-4-(trifluoromethyl)picolinamide] yielded a half-inhibitory concentration (IC50) of under 0.1 µM.

`CNc1ncc2c(n1)N1CCN=C1C(c1cc(NC(=O)c3ccnc(C(C)(C)C#N)c3)ccc1C)=C2` [Compound 162, 2-(2-cyanopropan-2-yl)-N-(4-methyl-3-(2-(methylamino)-8,9-dihydroimidazo[1′,2′:1,6]pyrido[2,3-d]pyrimidin-6-yl)phenyl)isonicotinamide] yielded an IC50 of under 0.1 µM.

As to `CNc1ncc2c(n1)N1CCN=C1C(c1cc(NC(=O)C3CC(C(F)(F)F)CCN3)ccc1C)=C2` (stereo not shown) [Compound 154, N-(4-methyl-3-(2-(methylamino)-8,9-dihydroimidazo[1′,2′:1,6]pyrido[2,3-d]pyrimidin-6-yl)phenyl)-4-(trifluoromethyl)piperidine-2-carboxamide], the concentration for half-maximal inhibition (IC50) was over 10 µM.

`Cc1ccc(NC(=O)c2cc(C(F)(F)F)ccn2)cc1C1=Cc2cnc(NCC(C)(C)O)nc2N2CCN=C12` [Compound 113, N-(3-(2-((2-hydroxy-2-methylpropyl)amino)-8,9-dihydroimidazo[1′,2′:1,6]pyrido[2,3-d]pyrimidin-6-yl)-4-methylphenyl)-4-(trifluoromethyl)picolinamide] gave an IC50 of under 0.1 µM.

The compound `CNc1ncc2c(n1)N1CCN=C1C(c1nc(NC(=O)c3cc(C(F)(F)F)ccn3)ccc1C)=C2` [Compound 192, N-(5-methyl-6-(2-(methylamino)-8,9-dihydroimidazo[1′,2′:1,6]pyrido[2,3-d]pyrimidin-6-yl)pyridin-2-yl)-4-(trifluoromethyl)picolinamide] displayed an IC50 of over 10 µM.

Turning to `Cc1cc(Nc2ncc3c(n2)N2CCN=C2C(c2cc(NC(=O)c4cc(C(F)(F)F)ccn4)ccc2C)=C3)ccn1` [Compound 212, N-(4-methyl-3-(2-((2-methylpyridin-4-yl)amino)-8,9-dihydroimidazo[1′,2′:1,6]pyrido[2,3-d]pyrimidin-6-yl)phenyl)-4-(trifluoromethyl)picolinamide], the IC50 was under 0.1 µM.

As for `CNc1ncc2c(n1)N1CCN=C1C(c1cc(NC(=O)c3cn(C(C)C)c(=O)n(-c4ccc(F)cc4)c3=O)c(F)cc1C)=C2` [Compound 194, N-(2-fluoro-4-methyl-5-(2-(methylamino)-8,9-dihydroimidazo[1′,2′:1,6]pyrido[2,3-d]pyrimidin-6-yl)phenyl)-3-(4-fluorophenyl)-1-isopropyl-2,4-dioxo-1,2,3,4-tetrahydropyrimidine-5-carboxamide], the half-inhibitory concentration (IC50) lay in the range of 0.1 to 10 µM.

Turning to `O=C(Nc1ccc(Cl)c(C2=Cc3cnc(NC4COC4)nc3N3CCN=C23)c1)c1cc(C(F)(F)F)ccn1` [Compound 137, N-(4-chloro-3-(2-(oxetan-3-ylamino)-8,9-dihydroimidazo[1′,2′:1,6]pyrido[2,3-d]pyrimidin-6-yl)phenyl)-4-(trifluoromethyl)picolinamide], the IC50 is under 0.1 µM.

In turn, `Cc1ccc(NC(=O)c2cc(C(F)(F)F)ccn2)cc1C1=Cc2cnc(Nc3ccn[nH]3)nc2N2CCN=C12` [Compound 240, N-(3-(2-((1H-pyrazol-5-yl)amino)-8,9-dihydroimidazo[1′,2′:1,6]pyrido[2,3-d]pyrimidin-6-yl)-4-methylphenyl)-4-(trifluoromethyl)picolinamide] showed an IC50 of under 0.1 µM.
